Where two headings read alike, the source gives them in different places.
Conditions: pH 6.0, approx. 20-30 mg/mL, stirred at ambient conditions for minimum 16 hours, precipitate analysed by XRPD
Description: Equilibrium solubility experiments were conducted by mixing Compound A and the solution of interest at a concentration of approximately 20-30 mg/mL (Table 1). The solution of interest contained either 50 mM L-histidine or phosphate buffer (pH: 5.8<x<6.3). Additional Compound A was added until a cloudy solution was maintained. The samples were stirred at ambient conditions for a minimum of 16 hours. At the conclusion of the solubility measurements, solutions were clarified by centrifugation. The wet precipitated material was transferred to a 96-well transmission XRPD sample plate and allowed to dry to room temperature prior to XRPD analysis.
X-ray powder diffraction patterns for the solid phases of Compound A were generated on a Philips Analytical X'Pert PRO X-ray Diffraction System with a high throughput stage. A Cu K-Alpha radiation source was used. […] The experiments were analyzed at ambient conditions.

SMILES: Nc1nc2c(ncn2[C@@H]2O[C@@H]3CO[P@@](O)(=S)O[C@H]4[C@H](F)[C@H](n5cnc6c(N)ncnc65)O[C@@H]4CO[P@@](O)(=S)O[C@@H]2[C@@H]3F)c(=O)[nH]1.[Na] [Crystalline, mono-sodium salt, Monosodium salt of 2-amino-9-[(2R,5R,7R,8S,10R,12aR,14R,15S,15aR,16R)-14-(6-amino-9H-purin-9-yl)-15,16-difluoro-2,10-dihydroxy-2,10-disulfidooctahydro-12H-5,8-methanofuro [3,2-1][1,3,6,9,11,2,10]pentaoxa-diphosphacyclotetradecin-7-yl]-1,9-dihydro-6H-purin-6-one]
- Compound A Terminal Phase (50 mM L-histidine buffer): Form 1
- Compound A Terminal Phase (50 mM phosphate buffer): Crystalline mono-
